{"source": "patent US10501516B2", "about": "“Peptide compound” (TAKEDA PHARMACEUTICAL COMPANY LIMITED, priority 2016, dated 2019)", "system": "Male DIO C57BL/6J mice", "experiment": "Repeated dosing study in diet-induced obese (DIO) mice", "assay_type": "in vivo, mouse", "details": "for ALT / AST / Insulin / TC / TG: plasma, mean ± SD", "method": "Male DIO C57BL/6J mice (40 weeks old) were divided into the groups based on the data of body weight, food intake, and plasma parameters. Vehicle or the compounds (P41) of Example 41 was subcutaneously administered once a day for 4 weeks. Body weight and food intake were monitored during the study. Compounds were dissolved in 10% DMSO/saline. After the study, blood was collected and plasma parameters were measured. At day 29, body composition was measured by EchoMRI (Hitachi Aloka Medical, Ltd., Japan) and the animals were sacrificed. For hematoxylin and eosin (HE) staining, livers were dissected from DIO mice after 4 weeks drug administration described in the above body-weight studies section. Livers were fixed in 4% paraformaldehyde, embedded in paraffin, sectioned, and stained with HE. After processing, the sections were mounted and then examined via light microscopy (NanoZoomer, Hamamatsu Photonics).\nTotal RNA was isolated from the liver using QIAzol reagent (QIAGEN Japan, Tokyo, Japan) and cDNA was synthesized using High-Capacity cDNA Reverse Transcription Kit (Applied Biosystems, CA, USA). Quantitative RT-PCR was performed using the ABI Prism 7900 Sequence Detection System with EXPRESS qPCR Super Mix (Thermo Fisher Scientific Inc. MA. USA). Mixtures of primers and probes (Applied Biosystems) were used for the detection of mRNA (Table 4). The expression levels were normalized to those of beta-actin and Peptidyl isomerase A.\nPlasma glucose, triglyceride (TG), total cholesterol (TC), aspartate aminotransferase (AST), and alanine aminotransferase (ALT) were analyzed by Autoanalyzer 7180 (Hitachi High-Technologies Corporation, Japan). Blood glycated hemoglobin (GHb) was measured with the automated GHb analyzers (HLC-723G8, Tosoh, Tokyo, Japan). Liver triglyceride content was measured as follows: a piece of tissue was homogenized in saline and lipid was extracted by the addition of hexane:isopropanol (3:2) solution. The lipid phase was collected, dried and then dissolved in isopropanol. The concentration of triglyceride was measured by Triglyceride E-test (Wako Pure Chemical Industries, Ltd, Japan) and triglyceride content per g liver was calculated. Plasma insulin was measured with ELISA Assay kit (Shibayagi Co. Ltd., Japan).", "key": {"[1]": {"details": "3 nmol/kg s.c. once a day for 4 weeks"}, "[2]": {"details": "10 nmol/kg s.c. once a day for 4 weeks"}, "[3]": {"details": "30 nmol/kg s.c. once a day for 4 weeks"}, "[4]": {"details": "3, 10 and 30 nmol/kg s.c. once a day for 4 weeks, dose-dependent"}, "[5]": {"details": "quantitative RT-PCR, liver, 4 weeks"}}, "note": "Square brackets hold non-standard residues; d marks the D form. Side chains are listed from the residue outwards. Peptide text beside a SMILES is read from it. * marks the point of attachment. NMeY = CN[C@@H](Cc1ccc(O)cc1)C(=O)O; Palmitoyl = CCCCCCCCCCCCCCCC(=O)*; αMeF = C[C@](N)(Cc1ccccc1)C(=O)O; Iva = CC[C@](C)(N)C(=O)O; Aib = CC(C)(N)C(=O)O"}
{"smiles": "CCCCCCCCCCCCCCCC(=O)NCC(=O)NCC(=O)NCC(=O)NCC(=O)NCCCC[C@H](NC(=O)[C@H](CC(=O)O)NC(=O)[C@H](CO)NC(=O)[C@@H](NC(=O)[C@](C)(Cc1ccccc1)NC(=O)[C@@H](NC(=O)CNC(=O)[C@H](CCC(=O)O)NC(=O)C(C)(C)NC(=O)[C@H](Cc1ccc(O)cc1)NC)[C@@H](C)O)[C@@H](C)O)C(=O)N[C@@H](CO)C(=O)N[C@H](C(=O)NC(C)(C)C(=O)N[C@@H](CC(C)C)C(=O)N[C@@H](CCC(=O)O)C(=O)N[C@@H](CCCCN)C(=O)N[C@@H](CCC(N)=O)C(=O)N[C@@H](CCCNC(=N)N)C(=O)N[C@@H](CCC(N)=O)C(=O)N[C@@](C)(CC)C(=O)N[C@@H](CCC(=O)O)C(=O)N[C@@H](Cc1ccccc1)C(=O)N[C@H](C(=O)N[C@@H](CCCNC(=N)N)C(=O)N[C@@H](Cc1c[nH]cn1)C(=O)N[C@@H](CC(C)C)C(=O)N[C@@H](CC(C)C)C(=O)N[C@@H](CC(N)=O)C(=O)N[C@@H](CCCCN)C(=O)NC(C)(C)C(=O)N[C@H](C(=O)N[C@@H](CCCNC(=N)N)C(=O)N[C@@H](CCC(N)=O)C(=O)N[C@@H](CCCNC(=N)N)C(=O)N[C@@H](Cc1ccc(O)cc1)C(N)=O)[C@@H](C)O)C(C)C)[C@@H](C)CC", "note": "[Example 41] (H-[NMeY][Aib]EGT[αMeF]TSDK([Gly-Gly-Gly-Gly-Palmitoyl])SI[Aib]LEKQRQ[Iva]EFVRHLLNK[Aib]TRQRY-NH2)", "values": [{"measurement": "decrease in body weight compared with vehicle group", "setting": "[1]", "value": 14.6, "unit": "%"}, {"measurement": "decrease in body weight compared with vehicle group", "setting": "[2]", "value": 30.0, "unit": "%"}, {"measurement": "decrease in body weight compared with vehicle group", "setting": "[3]", "value": 37.1, "unit": "%"}, {"measurement": "lean mass (EchoMRI)", "setting": "3, 10 and 30 nmol/kg s.c. once a day for 4 weeks", "value": "subtle decrease"}, {"measurement": "fat mass (EchoMRI)", "setting": "[4]", "value": "drastic decrease"}, {"measurement": "inguinal, mesenteric and epididymal fat pad weight", "setting": "[4]", "value": "significantly decreased"}, {"measurement": "liver TG content", "setting": "[4]", "value": "drastically decreased"}, {"measurement": "liver weight", "setting": "[4]", "value": "drastically decreased"}, {"measurement": "ALT", "setting": "[1]", "value": "94.2 ± 32.3", "unit": "U/L"}, {"measurement": "AST", "setting": "[1]", "value": "170.0 ± 37.2", "unit": "U/L"}, {"measurement": "Insulin", "setting": "[1]", "value": "4.9 ± 2.9", "unit": "ng/mL"}, {"measurement": "TC", "setting": "[1]", "value": "253.6 ± 11.9", "unit": "mg/dL"}, {"measurement": "TG", "setting": "[1]", "value": "50.5 ± 16.2", "unit": "mg/dL"}, {"measurement": "ALT", "setting": "[2]", "value": "35.6 ± 9.7", "unit": "U/L"}, {"measurement": "AST", "setting": "[2]", "value": "88.8 ± 11.7", "unit": "U/L"}, {"measurement": "Insulin", "setting": "[2]", "value": "3.7 ± 2.7", "unit": "ng/mL"}, {"measurement": "TC", "setting": "[2]", "value": "189.5 ± 22.1", "unit": "mg/dL"}, {"measurement": "TG", "setting": "[2]", "value": "62.2 ± 16.1", "unit": "mg/dL"}, {"measurement": "ALT", "setting": "[3]", "value": "37.5 ± 7.7", "unit": "U/L"}, {"measurement": "AST", "setting": "[3]", "value": "90.2 ± 10.3", "unit": "U/L"}, {"measurement": "Insulin", "setting": "[3]", "value": "5.2 ± 2.1", "unit": "ng/mL"}, {"measurement": "TC", "setting": "[3]", "value": "173.2 ± 16.4", "unit": "mg/dL"}, {"measurement": "TG", "setting": "[3]", "value": "50.2 ± 6.6", "unit": "mg/dL"}, {"measurement": "hepatic gene expression of inhibitor of fibrosis (MMP2)", "setting": "[5]", "value": "tended to increase"}, {"measurement": "hepatic gene expression related to fibrosis (Timp1, Col1α) and inflammation (CCl2)", "setting": "[5]", "value": "tended to decrease"}, {"measurement": "hepatic lipid droplet, HE staining of liver slices", "setting": "s.c. once a day for 4 weeks", "value": "Reduction of hepatic lipid droplet"}]}
